Experimental data from patent publication US7166622B2, “Substituted phenylsulfonamide inhibitors of beta amyloid production” (Wyeth, priority 2002, dated 2007).
Like-named read-outs stand apart in the source and are kept apart here.

How the values were obtained:
beta amyloid production = test: Repressor Release Assay (RRA); assay type: cell-based; conditions: for fold induction at 10 µg/mL / fold induction at 20 µg/mL / fold induction at 3 µg/mL: read-out: APPI Fold Increase; for APPI % of Example #98: relative to Example 98; for fold induction at 3 µg/mL: Conc 3 μg/ml
Summary of the method: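 CHO-K1 cells transiently co-transfected with pRSVO-luc and an APP-lacI construct, replated, then treated in duplicate for 36-48 h at 37 °C, 5% CO2. Compounds diluted in 25 mM Hepes, with Hepes/1% DMSO as diluent control. Luciferase read-out in relative light units; toxicity scored 1 non-toxic, 0 toxic.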

CHO-K1 cells = test: Toxicity in RRA (loss of luciferase signal); conditions: toxicity = loss of signal (<0.75 fold increase)
Protocol: The beta amyloid inhibitory activity of the compounds of the present invention was determined using the Repressor Release Assay (RRA).
“Fold Increase” refers to the amount of luciferase activity (measured in relative light units) over diluent control. “SEM” refers to the standard error of the mean for fold increase.

[1] = Conc 10 μg/ml, luciferase activity over diluent control
[2] = Conc 20 μg/ml, luciferase activity over diluent control
[3] = Conc 20 μg/ml, luciferase activity (RLU) over diluent control
[4] = Conc 20 μg/ml, 1=non-toxic, 0=toxic
[5] = luciferase activity over diluent control

## CCCCC(O)[C@@H](NS(=O)(=O)c1ccc(Cl)cc1)[C@@H](C)CC (stereo partly drawn) [Example 169, 4-chloro-N-{(1S)-2-hydroxy-1-[(1S)-1-methylpropyl]hexyl}benzenesulfonamide]
Beta amyloid production; [1]
  fold induction at 10 µg/mL: 2.85
CHO-K1 cells; Conc 10 μg/ml
  (%)APPI Toxicity: 1 (1=non-toxic)

## CC(C)C[C@@H](CO)NS(=O)(=O)c1ccc(Br)cc1 [Example 18, 4-bromo-N-[(1S)-1-(hydroxymethyl)-3-methylbutyl]benzenesulfonamide]
Beta amyloid production; [2]
  fold induction at 20 µg/mL: 1.9
CHO-K1 cells; Conc 20 μg/ml
  (%)APPI Toxicity: 1 (1=non-toxic)

## CCCCC[C@H](CC)[C@@H](CO)NS(=O)(=O)c1ccc(Br)cc1 [Example 81, 4-bromo-N-[(1S,2S)-2-ethyl-1-(hydroxymethyl)heptyl]benzenesulfonamide]
Beta amyloid production; [3]
  fold induction at 20 µg/mL: 5
CHO-K1 cells; [4]
  (%)APPI Toxicity: 1 (1=non-toxic)

## CCC(O)[C@@H](NS(=O)(=O)c1ccc(Cl)cc1)[C@@H](C)CC (stereo partly drawn) [Example 176, 4-chloro-N-{(1S)-2-hydroxy-1-[(1S)-1-methylpropyl]butyl}benzenesulfonamide]
Beta amyloid production; [1]
  fold induction at 10 µg/mL: 2.63
CHO-K1 cells; Conc 10 μg/ml
  (%)APPI Toxicity: 1 (1=non-toxic)

## CCC[C@H](C)[C@@H](CO)NS(=O)(=O)c1ccc(Br)cc1 [Example 76, 4-bromo-N-[(1S,2S)-1-(hydroxymethyl)-2-methylpentyl]benzenesulfonamide]
Beta amyloid production; [3]
  fold induction at 20 µg/mL: 5.8
CHO-K1 cells; [4]
  (%)APPI Toxicity: 1 (1=non-toxic)

## C=C(C)C(O)(C(=C)C)[C@@H](NS(=O)(=O)c1ccccc1F)[C@@H](C)CC [Example 268, 2-fluoro-N-{(1S)-2-hydroxy-2-isopropenyl-3-methyl-1-[(1S)-1-methylpropyl]-3-butenyl}benzenesulfonamide]
Beta amyloid production; [1]
  fold induction at 10 µg/mL: 1.75
CHO-K1 cells; Conc 10 μg/ml
  (%)APPI Toxicity: 1 (1=non-toxic)

## C[C@@H](c1ccco1)[C@@H](CO)NS(=O)(=O)c1ccc(Br)cc1 [Example 84, 4-bromo-N-[(1S,2R)-2-(2-furyl)-1-(hydroxymethyl)propyl]benzenesulfonamide]
Beta amyloid production; [3]
  fold induction at 20 µg/mL: 3.4
CHO-K1 cells; [4]
  (%)APPI Toxicity: 1 (1=non-toxic)

## CC[C@H](C)[C@@H](CO)NS(=O)(=O)c1ccc2ccccc2c1 [Example 13, N-[(1S,2S)-1-(hydroxymethyl)-2-methylbutyl]naphthalene-2-sulfonamide]
Beta amyloid production; [2]
  fold induction at 20 µg/mL: 1.8
CHO-K1 cells; Conc 20 μg/ml
  (%)APPI Toxicity: 1 (1=non-toxic)

## CC[C@H](C)[C@@H](CO)NS(=O)(=O)c1ccccc1F [Example 11, 2-fluoro-N-[(1S,2S)-1-(hydroxymethyl)-2-methylbutyl]benzenesulfonamide]
Beta amyloid production; [2]
  fold induction at 20 µg/mL: 2.3
CHO-K1 cells; Conc 20 μg/ml
  (%)APPI Toxicity: 1 (1=non-toxic)

## CC[C@H](C)[C@@H](CO)NS(=O)(=O)c1cc(Br)ccc1Br [Example 21, 2,5-dibromo-N-[(1S,2S)-1-(hydroxymethyl)-2-methylbutyl]benzenesulfonamide]
Beta amyloid production; [2]
  fold induction at 20 µg/mL: 1.6
CHO-K1 cells; Conc 20 μg/ml
  (%)APPI Toxicity: 1 (1=non-toxic)

## C=CCCC(O)[C@@H](NS(=O)(=O)c1ccc(Cl)cc1)[C@@H](C)CC (stereo partly drawn) [Example 180, 4-chloro-N-{(1S)-2-hydroxy-1-[(1S)-1-methylpropyl]-5-hexenyl}benzenesulfonamide]
Beta amyloid production; [1]
  fold induction at 10 µg/mL: 1.69
CHO-K1 cells; Conc 10 μg/ml
  (%)APPI Toxicity: 1 (1=non-toxic)

## CC(C)[C@@H](CO)NS(=O)(=O)c1cc(F)c(Br)cc1F [Example 26, 4-bromo-2,5-difluoro-N-[(1S)-1-(hydroxymethyl)-2-methylpropyl]benzenesulfonamide]
Beta amyloid production; [2]
  fold induction at 20 µg/mL: 2.4
CHO-K1 cells; Conc 20 μg/ml
  (%)APPI Toxicity: 1 (1=non-toxic)

## CC[C@H](C)[C@@H](CO)N(CC#Cc1ccccc1)S(=O)(=O)c1ccc(Cl)cc1 [Example 48, 4-chloro-N-[(1S,2S)-1-(hydroxymethyl)-2-methylbutyl]-N-(3-phenylprop-2-ynyl) benzenesulfonamide]
Beta amyloid production; [2]
  APPI Fold Increase: 3.1 fold
Beta amyloid production; Conc 20 μg/ml
  APPI % of Example #98: 116.6%
CHO-K1 cells; Conc 20 μg/ml
  (%)APPI Toxicity: 1 (1=non-toxic)

## CC[C@@H](CO)NS(=O)(=O)c1cccc(Cl)c1 [Example 108, 3-chloro-N-[(1S)-1-(hydroxymethyl)propyl]benzene sulfonamide]
Beta amyloid production; [5]
  fold induction at 3 µg/mL: 1.66
CHO-K1 cells; Conc 3 μg/ml
  (%)APPI Toxicity: 1 (1=non-toxic)

## CC(C)C[C@H](CO)NS(=O)(=O)c1ccccc1F [Example 113, 2-fluoro-N-[(1R)-1-(hydroxymethyl)-3-methylbutyl]benzenesulfonamide]
Beta amyloid production; [2]
  fold induction at 20 µg/mL: 1.6
CHO-K1 cells; Conc 20 μg/ml
  (%)APPI Toxicity: 1 (1=non-toxic)

## CC[C@H](C)[C@H](NS(=O)(=O)c1ccc(Br)cc1)C(O)(c1cccc2ccccc12)c1cccc2ccccc12 [Example 222, 4-bromo-N-((1S,2S)-1-{hydroxy[di(1-naphthyl)]methyl}-2-methylbutyl) benzenesulfonamide]
Beta amyloid production; [1]
  APPI Fold Increase: 1.59 fold
Beta amyloid production; Conc 10 μg/ml
  APPI % of Example #98: 54.46%
CHO-K1 cells; Conc 10 μg/ml
  (%)APPI Toxicity: 1 (1=non-toxic)

## C=CC(O)[C@@H](NS(=O)(=O)c1ccc(F)cc1)[C@@H](C)CC (stereo partly drawn) [Example 133, 4-fluoro-N-{(1S)-2-hydroxy-1-[(1S)-1-methylpropyl]-3-butenyl}benzenesulfonamide]
Beta amyloid production; [1]
  fold induction at 10 µg/mL: 1.79
CHO-K1 cells; Conc 10 μg/ml
  (%)APPI Toxicity: 1 (1=non-toxic)

## CC[C@H](C)[C@H](NS(=O)(=O)c1ccc(Br)cc1)C(O)c1ccc(F)cc1 (stereo partly drawn) [Example 154, 4-bromo-N-{(1S,2S)-1-[(4-fluorophenyl) (hydroxy)methyl]-2-methylbutyl}benzenesulfonamide]
Beta amyloid production; [1]
  fold induction at 10 µg/mL: 1.68
CHO-K1 cells; Conc 10 μg/ml
  (%)APPI Toxicity: 1 (1=non-toxic)

## C=C(C)C(O)(C(=C)C)[C@@H](NS(=O)(=O)c1ccc(F)cc1)[C@@H](C)CC [Example 243, 4-fluoro-N-{(1S)-2-hydroxy-2-isopropenyl-3-methyl-1-[(1S)-1-methylpropyl]-3-butenyl}benzenesulfonamide]
Beta amyloid production; [1]
  fold induction at 10 µg/mL: 1.7
CHO-K1 cells; Conc 10 μg/ml
  (%)APPI Toxicity: 1 (1=non-toxic)

## CC[C@H](C)[C@H](NS(=O)(=O)c1ccc(F)cc1)C(O)c1ccc(N(C)C)cc1 (stereo partly drawn) [Example 143, N-{(1S,2S)-1-[[4-(dimethylamino)phenyl](hydroxy)methyl]-2-methylbutyl}-4-fluorobenzenesulfonamide]
Beta amyloid production; [1]
  fold induction at 10 µg/mL: 5.72
CHO-K1 cells; Conc 10 μg/ml
  (%)APPI Toxicity: 1 (1=non-toxic)

## CC[C@H](C)[C@@H](CO)NS(=O)(=O)c1cccc(Cl)c1 [Example 3, 3-chloro-N-[(1S,2S)-1-(hydroxymethyl)-2-methylbutyl]benzenesulfonamide]
Beta amyloid production; [2]
  fold induction at 20 µg/mL: 3.6
CHO-K1 cells; Conc 20 μg/ml
  (%)APPI Toxicity: 1 (1=non-toxic)

## C=CCC(O)[C@@H](NS(=O)(=O)c1cccc(Cl)c1)[C@@H](C)CC (stereo partly drawn) [Example 194, 3-chloro-N-{(1S)-2-hydroxy-1-[(1S)-1-methylpropyl]-4-pentenyl}benzenesulfonamide]
Beta amyloid production; [1]
  fold induction at 10 µg/mL: 3.42
CHO-K1 cells; Conc 10 μg/ml
  (%)APPI Toxicity: 1 (1=non-toxic)

## CC[C@H](C)[C@H](NS(=O)(=O)c1ccc(Cl)cc1)C(O)c1ccccc1C (stereo partly drawn) [Example 171, 4-chloro-N-{(1S,2S)-1-[hydroxy(2-methylphenyl)methyl]-2-methylbutyl}benzenesulfonamide]
Beta amyloid production; [1]
  fold induction at 10 µg/mL: 1.54
CHO-K1 cells; Conc 10 μg/ml
  (%)APPI Toxicity: 1 (1=non-toxic)

## CC(C)C[C@@H](c1ccccc1)[C@@H](CO)NS(=O)(=O)c1ccc(Cl)cc1 [Example 64, 4-chloro-N-[(1S,2S)-1-(hydroxymethyl)-4-methyl-2-phenylpentyl]benzenesulfonamide]
Beta amyloid production; [3]
  fold induction at 20 µg/mL: 1.7
CHO-K1 cells; [4]
  (%)APPI Toxicity: 1 (1=non-toxic)

## C=CCCC(O)(CCC=C)[C@@H](NS(=O)(=O)c1cccc(Cl)c1)[C@@H](C)CC [Example 260, N-{(1S)-2-(3-butenyl)-2-hydroxy-1-[(1S)-1-methylpropyl]-5-hexenyl}-3-chlorobenzenesulfonamide]
Beta amyloid production; [5]
  fold induction at 3 µg/mL: 1.5
Beta amyloid production; [1]
  fold induction at 10 µg/mL: 6.23
CHO-K1 cells; Conc 3 μg/ml
  (%)APPI Toxicity: 1 (1=non-toxic)
CHO-K1 cells; Conc 10 μg/ml
  (%)APPI Toxicity: 1 (1=non-toxic)

## CC[C@H](C)[C@H](NS(=O)(=O)c1cccc(Cl)c1)C(O)(c1ccccc1)c1ccccc1 [Example 253, 3-chloro-N-{(1S,2S)-1-[hydroxy(diphenyl)methyl]-2-methylbutyl}benzenesulfonamide]
Beta amyloid production; [1]
  fold induction at 10 µg/mL: 1.61
CHO-K1 cells; Conc 10 μg/ml
  (%)APPI Toxicity: 1 (1=non-toxic)

## CCCCCC[C@@H](c1ccco1)[C@@H](CO)NS(=O)(=O)c1ccc(Cl)cc1 [Example 68, 4-chloro-N-[(1S,2R)-2-(2-furyl)-1-(hydroxymethyl)octyl]benzenesulfonamide]
Beta amyloid production; [3]
  fold induction at 20 µg/mL: 2
CHO-K1 cells; [4]
  (%)APPI Toxicity: 1 (1=non-toxic)

## CCC[C@H](c1ccccc1)[C@@H](CO)NS(=O)(=O)c1ccc(Cl)cc1 [Example 59, 4-chloro-N-[(1S,2R)-1-(hydroxymethyl)-2-phenylpentyl]benzenesulfonamide]
Beta amyloid production; [3]
  fold induction at 20 µg/mL: 3.2
CHO-K1 cells; [4]
  (%)APPI Toxicity: 1 (1=non-toxic)

## N-{(1S)-2-allyl-2-hydroxy 1-[(1S)-1-methylpropyl]-4-pentenyl}-4-bromo benzenesulfonamide [Example 216]
Beta amyloid production; [1]
  APPI Fold Increase: 1.58 fold
Beta amyloid production; Conc 10 μg/ml
  APPI % of Example #98: 72.76%
CHO-K1 cells; Conc 10 μg/ml
  (%)APPI Toxicity: 1 (1=non-toxic)

## CC[C@H](C)[C@H](NS(=O)(=O)c1cccc(Cl)c1)C(O)CCC1OCCCO1 (stereo partly drawn) [Example 199, 3-chloro-N-{(1S)-4-(1,3-dioxan-2-yl)-2-hydroxy-1-[(1S)-1-methylpropyl]butyl}benzenesulfonamide]
Beta amyloid production; [1]
  fold induction at 10 µg/mL: 1.61
CHO-K1 cells; Conc 10 μg/ml
  (%)APPI Toxicity: 1 (1=non-toxic)

## C=CCCC(O)[C@@H](NS(=O)(=O)c1ccc(Br)cc1)[C@@H](C)CC (stereo partly drawn) [Example 161, 4-bromo-N-{(1S)-2-hydroxy-1-[(1S)-1-methylpropyl]-5-hexenyl}benzenesulfonamide]
Beta amyloid production; [1]
  fold induction at 10 µg/mL: 1.69
CHO-K1 cells; Conc 10 μg/ml
  (%)APPI Toxicity: 1 (1=non-toxic)
